Results published in ChEMBL document CHEMBL1156463, “Survivin down-regulation plays a crucial role in 3-hydroxy-3-methylglutaryl coenzyme A reductase inhibitor-induced apoptosis in cancer” (J Biol Chem, 2007).
The source made the active and inactive calls. The rule behind the calls is not given here.

Tests used:
[1] = tested on: SW480; assay: Reversal of reduction in survivin expression in human SW480 cells at 20 uM after 48 hrs by immunoblot analysis in presence of 100 uM mevalonate; format: functional, cell-based
[2] = Growth inhibition of human LS180 cells after 96 hrs by MTS assay; format: functional, cell-based; details: LS180, 96 h
[3] = tested on: SW480; assay: Decrease in isoprenylated Ras level in human SW480 cells at 20 uM after 48 hrs by immunoblot analysis; format: functional, cell-based
[4] = tested on: SW480; assay: Reversal of growth inhibition of human SW480 cells at 20 uM after 48 hrs by […] in presence of squalene; format: functional, cell-based
[5] = tested on: LS180; assay: Inhibition of survivin expression in survivin gene transfected human LS180 cells at 20 uM immunoblot analysis; format: functional, cell-based
[6] = tested on: SW480; assay: Induction of cell cycle arrest in human SW480 cells by accumulation at G2/M phase at 20 uM after 48 hrs by flow cytometry; format: functional, cell-based
[7] = tested on: SW480; assay: Induction of apoptosis in human SW480 cells assessed as increase in hypodiploid DNA content at 20 uM after 48 hrs by flow cytometry relative to control; format: functional
[8] = tested on: SW480; assay: Induction of cell cycle arrest in human SW480 cells by accumulation at S phase at 20 uM after 48 hrs by flow cytometry; format: functional, cell-based
[9] = tested on: LS180; assay: Blockade of growth inhibition of human LS180 cells after 72 hrs by MTS method; format: functional, cell-based
[10] = tested on: SW480; assay: Reversal of decrease in isoprenylated Ras level in human SW480 cells at 20 uM after 48 hrs by immunoblot analysis in presence of farnesyl pyrophosphate; format: functional, cell-based
[11] = tested on: LS180; assay: Blockade of growth inhibition of survivin gene transfected human LS180 cells after 72 hrs by MTS method; format: functional, cell-based
[12] = tested on: SW480; assay: Reversal of decrease in isoprenylated Ras level in human SW480 cells at 20 uM after 48 hrs by immunoblot analysis in presence of squalene; format: functional, cell-based
[13] = tested on: SW480; assay: Induction of cell cycle arrest in human SW480 cells by accumulation at G0/G1 phase at 20 uM after 48 hrs by flow cytometry; format: functional, cell-based
[14] = tested on: SW480; assay: Reversal of growth inhibition of human SW480 cells at 20 uM after 48 hrs by […] in presence of farnesyl pyrophosphate; format: functional, cell-based
[15] = tested on: LS180; assay: Inhibition of survivin expression in parent human LS180 cells at 20 uM by immunoblot analysis; format: functional, cell-based
[16] = tested on: SW480; assay: Reversal of decrease in isoprenylated Ras level in human SW480 cells at 20 uM after 48 hrs by immunoblot analysis in presence of geranylgeranyl pyrophosphate; format: functional, cell-based
[17] = tested on: SW480; assay: Reversal of reduction in survivin mRNA expression in human SW480 cells at 20 uM after 48 hrs by RT-PCR technique in presence of 100 uM mevalonate; format: functional, cell-based
[18] = tested on: SW480; assay: Effect on Bax expression in human SW480 cells; format: functional, cell-based
[19] = tested on: HT-29; assay: Growth inhibition of human HT29 cells after 96 hrs by MTS assay; format: functional, cell-based; details: HT-29, 96 h
[20] = tested on: SW480; assay: Inhibition of FBS-stimulated increase in Ras protein expression in human SW480 cells assessed as GTP-bound protein at 20 uM by immunoblot analysis; format: functional, cell-based
[21] = tested on: SW480; assay: Reversal of growth inhibition of human SW480 cells at 20 uM after 48 hrs by […] in presence of geranylgeranyl pyrophosphate; format: functional, cell-based
[22] = tested on: SW480; assay: Reversal of decrease in isoprenylated Ras level in human SW480 cells at 20 uM after 48 hrs by immunoblot analysis in presence of mevalonate; format: functional, cell-based
[23] = tested on: SW480; assay: Reversal of growth inhibition of human SW480 cells at 20 uM after 48 hrs by MTS assay in presence of >50 uM mevalonate; format: functional, cell-based
[24] = tested on: SW480; assay: Growth inhibition of human SW480 cells after 96 hrs by MTS assay; format: functional, cell-based; details: SW480, 96 h
[25] = tested on: SW480; assay: Decrease in survivin expression in human SW480 cells at 20 uM after 48 hrs by immunoblot analysis; format: functional, cell-based
[26] = tested on: SW480; assay: Decrease in survivin mRNA expression in human SW480 cells at 20 uM after 48 hrs by RT-PCR technique; format: functional
[27] = tested on: SW480; assay: Reversal of inhibition of FBS-stimulated increase in Ras protein expression in human SW480 cells assessed as GTP-bound protein at 20 uM by immunoblot analysis; format: functional, cell-based
[28] = tested on: SW480; assay: Induction of apoptosis in human SW480 cells at 20 uM after 48 hrs by annexin-V propidium iodide staining method; format: functional
[29] = target: RAC-alpha serine/threonine-protein kinase (Homo sapiens) (UniProt P31749); assay: Inhibition of FBS-stimulated increase in Akt phosphorylation in human SW480 cells at 20 uM by immunoblot analysis; format: cell-based
[30] = tested on: SW480; assay: Decrease in survivin expression in human SW480 cells at 20 uM after 24 hrs by immunoblot analysis; format: functional, cell-based

Sequence of RAC-alpha serine/threonine-protein kinase (Homo sapiens) (P31749 whole entry): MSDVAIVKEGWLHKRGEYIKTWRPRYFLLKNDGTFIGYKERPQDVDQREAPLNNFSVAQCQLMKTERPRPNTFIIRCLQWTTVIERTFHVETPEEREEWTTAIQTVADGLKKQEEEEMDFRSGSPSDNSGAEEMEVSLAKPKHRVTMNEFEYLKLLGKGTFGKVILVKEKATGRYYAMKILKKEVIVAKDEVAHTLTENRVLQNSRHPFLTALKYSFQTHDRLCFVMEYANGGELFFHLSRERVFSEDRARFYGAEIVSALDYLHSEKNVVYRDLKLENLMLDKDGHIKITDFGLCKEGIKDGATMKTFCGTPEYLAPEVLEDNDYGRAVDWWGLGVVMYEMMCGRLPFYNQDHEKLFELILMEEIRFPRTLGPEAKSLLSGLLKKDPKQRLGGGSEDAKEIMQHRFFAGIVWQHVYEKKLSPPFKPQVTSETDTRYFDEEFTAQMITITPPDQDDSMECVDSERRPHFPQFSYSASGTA

In the case of CC[C@H](C)C(=O)O[C@H]1C[C@@H](C)C=C2C=C[C@H](C)[C@H](CC[C@@H]3C[C@@H](O)CC(=O)O3)[C@H]21 [LOVASTATIN], the Activity [1] is reported as “Active”, the IC50 [2] is reported as 25.3 µM and the Activity [3] is reported as “Active”. For the same molecule, the Activity [4] was “inactive”, the Activity [5] was “Active” and the Activity [6] was “inactive”. For the same molecule, the Activity [7] was 20.7%, the Activity [8] was “inactive” and the Activity [9] was “Active”. The Activity [10] was “Active”, the Activity [11] was “Dose-dependent effect” and the Activity [12] was “inactive”. The Activity [13] was “inactive”, the Activity [14] was “Active” and the Activity [15] was “Active”. The Activity [16] was “Active”, the Activity [17] was “Active” and the Activity [18] was “inactive”. The IC50 [19] was 46.8 µM, the Activity [20] was “Active” and the Activity [21] was “Active”. The Activity [22] was “Active”, the Activity [23] was “Active” and the IC50 [24] was 7.1 µM. The Activity [25] was “Active”, the Activity [26] was 60% and the Activity [27] was “Active”. The Activity [28] was 24.2% and the Activity [29] was “Active”.

For O=c1cc(N2CCOCC2)oc2c(-c3ccccc3)cccc12, the Activity [30] was “Active”.
